How the values were obtained:
Experiment in all cases: relative viability (nuclei count vs DMSO), 5 days (fraction); higher = more cells survive
[1] = compound: CC1CC(=O)N(C2=CN=C(N=C2N1C3CCCC3)NC4=C(C=C(C=C4)C(=O)NC5CCN(CC5)C)OC)C [NPK76-II-72-1] + CC1(C)CCC(c2ccc(Cl)cc2)=C(CN2CCN(c3ccc(C(=O)NS(=O)(=O)c4ccc(N[C@H](CCN5CCOCC5)CSc5ccccc5)c(S(=O)(=O)C(F)(F)F)c4)cc3)CC2)C1 [Navitoclax] (partner 0.5 µM)
In short: (§1)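 Five library-drug doses in √10 steps were combined with a fixed anchor-drug dose, or a single drug was given alone, by pin tool to lung cancer cell lines in 1536-well plates the day after seeding. Nuclei were stained and counted after 5 days. Relative viability is the nuclei count in treated wells over that in vehicle wells, taken as the median of duplicate plates.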

[2] = compound: CC1CC(=O)N(C2=CN=C(N=C2N1C3CCCC3)NC4=C(C=C(C=C4)C(=O)NC5CCN(CC5)C)OC)C [NPK76-II-72-1] + C[C@]1(O)C[C@@H](c2nc(-c3ccc4ccc(-c5ccccc5)nc4c3)c3c(N)nccn32)C1 [Linsitinib] (partner 1 µM)
In short: as §1

[3] = compound: CC1CC(=O)N(C2=CN=C(N=C2N1C3CCCC3)NC4=C(C=C(C=C4)C(=O)NC5CCN(CC5)C)OC)C [NPK76-II-72-1] + CC(=O)Nc1cccc(-n2c(=O)n(C3CC3)c(=O)c3c(Nc4ccc(I)cc4F)n(C)c(=O)c(C)c32)c1 [Trametinib] (partner 0.02 µM)
In short: as §1

[4] = compound: CC1CC(=O)N(C2=CN=C(N=C2N1C3CCCC3)NC4=C(C=C(C=C4)C(=O)NC5CCN(CC5)C)OC)C [NPK76-II-72-1] + CC(=O)c1c(C)c2cnc(Nc3ccc(N4CCNCC4)cn3)nc2n(C2CCCC2)c1=O [Palbociclib] (partner 0.5 µM)
In short: as §1

Cell Line	relative viability ([1]; first compound 0.01 µM)	relative viability ([1]; first compound 0.03162 µM)	relative viability ([1]; first compound 0.1 µM)	relative viability ([1]; first compound 0.3162 µM)	relative viability ([1]; first compound 1 µM)	relative viability ([2]; first compound 0.01 µM)	relative viability ([2]; first compound 0.03162 µM)	relative viability ([2]; first compound 0.1 µM)	relative viability ([2]; first compound 0.3162 µM)	relative viability ([2]; first compound 1 µM)	relative viability ([3]; first compound 0.01 µM)	relative viability ([3]; first compound 0.03162 µM)	relative viability ([3]; first compound 0.1 µM)	relative viability ([3]; first compound 0.3162 µM)	relative viability ([3]; first compound 1 µM)	relative viability ([4]; first compound 0.01 µM)	relative viability ([4]; first compound 0.03162 µM)	relative viability ([4]; first compound 0.1 µM)	relative viability ([4]; first compound 0.3162 µM)	relative viability ([4]; first compound 1 µM)
NCI-H596	0.862	1.01	0.828	0.965	1.04	1.02	1.14	1.06	1.13	1.09	0.764	0.787	0.776	0.82	0.803					
A-427	1.01	0.941	0.92	1.05	0.96	1.1	1.09	1.15	1.14	1.13	0.732	0.743	0.812	0.691	0.812	0.494	0.537	0.529	0.532	0.565
EMC-BAC-2	1.13	1.17	1.1	1.17	1.19	0.814	0.848	0.848	0.747	0.793	0.836	0.955	0.845	0.81	0.952	0.54	0.561	0.476	0.516	0.538
NCI-H441	0.634	0.946	0.671	0.533	0.73	0.479	0.696	0.492	0.265	0.65	0.396	0.507	0.429	0.497	0.54	0.232	0.26	0.251	0.205	0.254
LCLC-103H						1.04	1.16	1.02	1.03	1.01		0.673	0.556	0.709	0.693		0.501	0.501	0.565	0.484
NCI-H2170	0.615	0.558	0.565		0.643						0.884	0.934	0.93	0.654	0.892	0.395	0.358	0.435	0.285	0.415
NCI-H1703	0.961	1.59	1.27	1.19	1.38	0.428	0.65	0.621	0.645	0.996										
Calu-6	0.879	0.942	0.894	0.809	0.889	0.981	0.912	0.897	0.948	0.946										
NCI-H1650	1.08	1.12	1.23	1.12	1.07						0.523	0.591	0.59	0.491	0.585	0.314	0.428	0.458	0.31	0.407
EBC-1	0.35	0.36	0.376	0.417	0.485	0.853	0.858	0.886	0.922	1.13										
NCI-H2342											0.871	0.655	0.909	0.809	0.461	0.487	0.468	0.47	0.508	0.541
SW 900											0.871	1.07	0.66	0.587	1.11	0.53	0.632	0.464	0.441	0.584
NCI-H1563						1.07	1.29	1.11	1.16	1.2										
NCI-H1299	1.04	1.05	1.01	1.03	1.04	0.999	0.96	1.01	0.98	1.03										
NCI-H358						0.742	0.773	0.854	0.412	0.784	0.14	0.145	0.204		0.151	0.131	0.186	0.165		0.126
NCI-H650						0.941	1.02	0.652		0.845	1.14	0.996	0.957	0.997	1.01	0.332	0.366	0.3	0.303	0.356
NCI-H661						0.536	0.557	0.546	0.525	0.519	0.622	0.685	0.589	0.526	0.611	0.424	0.37	0.418	0.346	0.435
NCI-H522											0.811	0.619	0.747		0.79	0.866	1.02	0.981		1.1
A549	1.17	1.29	1.22	1.12	1.15	0.516	0.651	0.538	0.417	0.54										
NCI-H1648											0.503	0.504	0.369	0.384	0.494	0.23	0.269	0.24	0.266	0.279
IA-LM	0.752	1.17	0.67	0.733	1	0.582	0.684	0.435	0.597	0.809										
ChaGo-K-1	0.937	0.955	1.09	0.944	0.64						0.876	0.98	0.868	0.897	0.875	0.871	0.891	0.892	0.925	0.945
ABC-1						0.599	0.558	0.861	0.703	0.767						0.522	0.646	0.791	0.511	0.672

From the supplement of paper PMC10307832
